The results in this text go back to US7906491B2 (Univisitair Medisch Centrum Utrecht, priority 2002, dated 2011).

One experiment has as its target T1, Epac (Homo sapiens, UniProt O95398).
T1 sequence (O95398 1-923): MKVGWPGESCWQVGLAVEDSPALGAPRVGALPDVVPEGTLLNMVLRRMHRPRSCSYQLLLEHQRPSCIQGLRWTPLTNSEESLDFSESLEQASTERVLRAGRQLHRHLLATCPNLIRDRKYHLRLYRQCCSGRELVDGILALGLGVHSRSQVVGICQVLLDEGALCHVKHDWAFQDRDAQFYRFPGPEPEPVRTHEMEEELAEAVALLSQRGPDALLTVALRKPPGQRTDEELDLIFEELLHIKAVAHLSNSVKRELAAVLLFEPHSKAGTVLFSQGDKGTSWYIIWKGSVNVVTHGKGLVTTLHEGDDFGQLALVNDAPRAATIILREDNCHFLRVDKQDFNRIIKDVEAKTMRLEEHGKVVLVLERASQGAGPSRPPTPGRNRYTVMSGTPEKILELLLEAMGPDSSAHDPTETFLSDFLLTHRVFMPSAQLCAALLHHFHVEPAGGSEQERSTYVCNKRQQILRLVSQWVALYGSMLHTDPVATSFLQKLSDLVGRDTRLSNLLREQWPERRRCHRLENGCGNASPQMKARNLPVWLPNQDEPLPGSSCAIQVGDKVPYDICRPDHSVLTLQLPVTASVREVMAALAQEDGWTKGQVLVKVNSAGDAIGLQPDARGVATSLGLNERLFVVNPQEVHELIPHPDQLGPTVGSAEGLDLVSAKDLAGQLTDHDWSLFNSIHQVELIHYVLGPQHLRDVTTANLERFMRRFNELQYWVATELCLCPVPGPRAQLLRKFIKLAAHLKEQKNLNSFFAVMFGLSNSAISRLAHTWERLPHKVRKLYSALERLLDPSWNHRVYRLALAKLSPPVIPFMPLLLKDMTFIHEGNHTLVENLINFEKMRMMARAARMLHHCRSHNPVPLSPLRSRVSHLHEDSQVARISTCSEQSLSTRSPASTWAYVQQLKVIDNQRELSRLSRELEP
The experiment in a line: Relative affinity for Epac (cAMP = 1), in vitro. It counts as binding. The note with it: relative to cAMP = 1.

A further experiment has as its system PKAI. Briefly: Relative affinity for PKAI (cAMP = 1), in vitro. Format: binding. To be noted: relative to cAMP = 1.
A further experiment has as its target T2, Epac1-ΔDEP1 (Homo sapiens, UniProt O95398).
T2 sequence (O95398 191-923 limits assumed): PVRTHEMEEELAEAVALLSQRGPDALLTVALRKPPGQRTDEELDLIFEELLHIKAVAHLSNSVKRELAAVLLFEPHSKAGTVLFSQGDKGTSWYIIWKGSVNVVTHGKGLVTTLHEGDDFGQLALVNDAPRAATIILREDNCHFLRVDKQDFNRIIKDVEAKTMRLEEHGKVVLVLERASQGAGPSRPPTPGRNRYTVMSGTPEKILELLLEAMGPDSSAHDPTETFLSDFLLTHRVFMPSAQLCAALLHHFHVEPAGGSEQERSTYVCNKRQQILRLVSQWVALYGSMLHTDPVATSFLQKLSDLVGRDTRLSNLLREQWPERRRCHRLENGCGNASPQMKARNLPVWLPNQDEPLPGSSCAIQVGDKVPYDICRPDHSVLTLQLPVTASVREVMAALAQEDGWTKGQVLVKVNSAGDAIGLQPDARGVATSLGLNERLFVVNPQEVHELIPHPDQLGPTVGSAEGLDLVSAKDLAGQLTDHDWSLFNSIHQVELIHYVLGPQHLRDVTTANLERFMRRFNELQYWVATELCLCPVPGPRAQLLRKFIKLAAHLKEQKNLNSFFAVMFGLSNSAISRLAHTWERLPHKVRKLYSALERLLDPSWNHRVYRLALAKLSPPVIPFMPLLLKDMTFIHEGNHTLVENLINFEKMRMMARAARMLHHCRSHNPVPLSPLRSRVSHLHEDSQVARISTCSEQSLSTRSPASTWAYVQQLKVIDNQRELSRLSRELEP
Briefly: In vitro GEF assay: Epac activity in the exchange reaction towards Rap (mantGDP-loaded Rap1b). Also: key: +++: activity comparible to I-007; ++: activity between I-007 and cAMP; +: activity comparible to cAMP; ±: activity less than cAMP. Format: biochemical. The note with it: in vitro in the exchange reaction towards Rap. How it is done: In vitro GEF assays were performed as described (3,16). […] Buffer conditions were 50 mM Tris pH7.4, 150 mM NaCl, 5% glycerol, 5 mM DTE, 60 μM GTP. Reactions were carried out in 96-well plates and measured in a Cary Eclipse from Varian Inc., using the manufacturers software.

A further experiment concerns PKAII. Briefly: Relative affinity for PKAII (cAMP = 1), in vitro. It counts as binding. To be noted: relative to cAMP = 1.

Turning to “2′-O-ethyladenosine-3′,5′-cyclic monophosphate [Compound I-008]”, the “Relative affinity CAMP = 1 Epac” value on Epac came out at 0.05. For the same molecule, in the experiment with PKAI, the “Relative affinity CAMP = 1 PKAI” value was found to be 0.0043. Moreover, the “Relative activity of Epac*” value at Epac1-ΔDEP1 was “+”.
As to “2′-O-isobutyladenosine-3′,5′-cyclic monophosphate [Compound I-011]”, the “Relative affinity CAMP = 1 Epac” value at Epac is reported as 0.017. Further, the “Relative affinity CAMP = 1 PKAI” value with PKAI amounted to 0.0009. For the same molecule, the “Relative activity of Epac*” value at Epac1-ΔDEP1 was “±”.
Take “2′-O-methyladenosine-3′,5′-cyclic monophosphate [Compound I-005]”: the “Relative affinity CAMP = 1 Epac” value on Epac was 0.12. The “Relative affinity CAMP = 1 PKAI” value with PKAI worked out at 0.005. The “Relative affinity CAMP = 1 PKAII” value with PKAII is 0.005.
Consider “2′-O-n-butyladenosine-3′,5′-cyclic monophosphate [Compound I-010]”, for which, at Epac, the “Relative affinity CAMP = 1 Epac” value was found to be 0.03. Further, the “Relative affinity CAMP = 1 PKAI” value in the experiment with PKAI is on record as 0.0008. Also, at Epac1-ΔDEP1, the “Relative activity of Epac*” value is “+”.
The like results for “2′-O-propyladenosine-3′,5′-cyclic monophosphate [Compound I-009]” were, in that order, 0.03, 0.001 and “+”.
For the molecule “2′-deoxyadenosine-3′,5′-cyclic monophosphate [Compound I-001]”, the “Relative affinity CAMP = 1 Epac” value at Epac is listed as 0.0025. In addition, the “Relative affinity CAMP = 1 PKAI” value in the experiment with PKAI worked out at 0.00013. Also, the “Relative activity of Epac*” value at Epac1-ΔDEP1 is “+”. In addition, the “Relative affinity CAMP = 1 PKAII” value with PKAII was 0.000088.
In the case of “8-(2-amino-phenylthio)-2′-O-methyladenosine-3′,5′-cyclic monophosphate [Compound I-107]”, on Epac, the “Relative affinity CAMP = 1 Epac” value amounted to 1.3. Also, in the experiment on PKAI, the “Relative affinity CAMP = 1 PKAI” value turned out to be 0.004. The “Relative activity of Epac*” value on Epac1-ΔDEP1 is “+”. In the experiment on PKAII, the “Relative affinity CAMP = 1 PKAII” value came to 0.0001.
Taken in the same sequence, the figures for “8-(4-chloro-phenylthio)-2′-deoxyadenosine-3′,5′-cyclic monophosphate [Compound I-003]” were 0.2, 0.001, “+” and 0.001.
Taken in the same sequence, the figures for “8-(4-fluoro-phenylthio)-2′-O-methyladenosine-3′,5′-cyclic monophosphate [Compound I-102]” were 4.5, 0.02, “+++” and 0.0004.
The like results for “8-(4-methoxy-phenylthio)-2′-O-methyladenosine-3′,5′-cyclic monophosphate [Compound I-112]” were, in that order, 6.5, 0.025, “+++” and 0.0006.
As to “8-(4-methyl-cumarinyl-7-thio)-2′-O-methyladenosine-3′,5′-cyclic monophosphate [Compound I-103]”, the “Relative affinity CAMP = 1 Epac” value at Epac worked out at 1.8. The “Relative affinity CAMP = 1 PKAI” value in the experiment with PKAI was 0.03. For the same molecule, at Epac1-ΔDEP1, the “Relative activity of Epac*” value is reported as “±”. For the same molecule, the “Relative affinity CAMP = 1 PKAII” value in the experiment with PKAII is listed as 0.0005.
Taken in the same sequence, the figures for “8-(4-nitro-phenylthio)-2′-O-methyladenosine-3′,5′-cyclic monophosphate [Compound I-106]” were 1.2, 0.02, “++” and 0.0002.
Consider “8-(benzimidazolyl-2-thio)-2′-O-methyladenosine-3′,5′-cyclic monophosphate [Compound I-115]”, for which the “Relative affinity CAMP = 1 Epac” value on Epac is given as 0.09. For the same molecule, the “Relative activity of Epac*” value on Epac1-ΔDEP1 is recorded as “+”.
Take “8-(benzothiazolyl-2-thio)-2′-O-methyladenosine-3′,5′-cyclic monophosphate [Compound I-120]”: the “Relative affinity CAMP = 1 Epac” value on Epac stood at 0.17. Further, the “Relative activity of Epac*” value on Epac1-ΔDEP1 was “+”.
For “8-(naphtyl-2-thio)-2′-O-methyladenosine-3′,5′-cyclic monophosphate [Compound I-104]”, the “Relative affinity CAMP = 1 Epac” value on Epac worked out at 2.3. Besides, in the experiment with PKAI, the “Relative affinity CAMP = 1 PKAI” value is 0.03. At Epac1-ΔDEP1, the “Relative activity of Epac*” value was “++”. Moreover, the “Relative affinity CAMP = 1 PKAII” value in the experiment on PKAII is reported as 0.001.
In the case of “8-(pyridinyl-2-thio)-2′-O-methyladenosine-3′,5′-cyclic monophosphate [Compound I-119]”, at Epac, the “Relative affinity CAMP = 1 Epac” value is given as 0.8. For the same molecule, at Epac1-ΔDEP1, the “Relative activity of Epac*” value is given as “++”.
The like results for “8-benzyloxy-2′-O-methyladenosine-3′,5′-cyclic monophosphate [Compound I-132]” were, in that order, 0.18 and “+”.
Turning to “8-benzylthio-2′-O-methyladenosine-3′,5′-cyclic monophosphate [Compound I-108]”, the “Relative affinity CAMP = 1 Epac” value on Epac stood at 1.3. The “Relative affinity CAMP = 1 PKAI” value in the experiment with PKAI is 0.04. Moreover, the “Relative activity of Epac*” value at Epac1-ΔDEP1 is reported as “+”. Further, the “Relative affinity CAMP = 1 PKAII” value in the experiment with PKAII is 0.0007.
In the case of “8-bromo-2′-O-methyladenosine-3′,5′-cyclic monophosphate [Compound I-006]”, the “Relative affinity CAMP = 1 Epac” value at Epac was 0.9. Further, in the experiment on PKAI, the “Relative affinity CAMP = 1 PKAI” value is on record as 0.0015. Moreover, the “Relative activity of Epac*” value at Epac1-ΔDEP1 is reported as “++”. Further, the “Relative affinity CAMP = 1 PKAII” value with PKAII is on record as 0.003.
Consider “8-bromo-2′-O-methyladenosine-3′,5′-cyclic monophosphorothioate, Rp-isomer [Compound I-129]”, for which the “Relative affinity CAMP = 1 Epac” value at Epac worked out at 0.05. Also, the “Relative activity of Epac*” value at Epac1-ΔDEP1 was “±”.
With “8-chloro-2′-O-methyladenosine-3′,5′-cyclic monophosphate [Compound I-141]”, the “Relative affinity CAMP = 1 Epac” value on Epac is 0.92. For the same molecule, the “Relative affinity CAMP = 1 PKAI” value with PKAI amounted to 0.012. Further, in the experiment on PKAII, the “Relative affinity CAMP = 1 PKAII” value stood at 0.0002.
As to “8-methoxy-2′-O-methyladenosine-3′,5′-cyclic monophosphate [Compound I-131]”, the “Relative affinity CAMP = 1 Epac” value at Epac is on record as 0.36. In addition, at Epac1-ΔDEP1, the “Relative activity of Epac*” value is on record as “+”.
Taken in the same sequence, the figures for “8-phenylethylamino-2′-O-methyladenosine-3′,5′-cyclic monophosphate [Compound I-111]” were 0.08 and “±”.
As to `O=[P@]1(O)OC[C@H]2O[C@@H](n3c(Sc4ccc(Cl)cc4)nc4c(Nc5ccccc5)ncnc43)C[C@@H]2O1` [Compound I-004, 8-(4-chloro-phenylthio)-N^6-phenyl-2′-deoxyadenosine-3′,5′-cyclic monophosphate], at Epac, the “Relative affinity CAMP = 1 Epac” value is 0.5. The “Relative affinity CAMP = 1 PKAI” value in the experiment with PKAI came out at 0.03. In the experiment on PKAII, the “Relative affinity CAMP = 1 PKAII” value is given as 0.26.
Turning to `CCSc1nc2c(N)ncnc2n1C1OC2COP(=O)(O)OC2C1OC` (centres unmarked) [Compound I-117, 8-ethylthio-2′-O-methyladenosine-3′,5′-cyclic monophosphate], the “Relative affinity CAMP = 1 Epac” value at Epac is 1.8. Besides, the “Relative activity of Epac*” value on Epac1-ΔDEP1 is “+”.
